Where “and” joins values, the source holds several entries; their conditions need not be identical. Equal values may be shown once.

The text below walks through data of PMC9230797, “Integration of a Physiologically Based Pharmacokinetic and Pharmacodynamic Model for Tegoprazan and Its Metabolite: Application for Predicting Food Effect and Intragastric pH Alterations” (Pharmaceutics, 2022).

Details of series [1]: method as in PMID 32055586. The following applies: Observed (n = 12); single 100 mg tegoprazan; mean (5th–95th percentile); cited from earlier work.
The conditions of series [2]: weak base; cited from earlier work.
Series [3] is described as follows: PBPK model input parameters predicted in SimCYP or obtained by parameter estimation. The following applies: human; initial model value; Vd of the clinical study applied; read-out: Vss. An excerpt: The tegoprazan and M1 PBPK models were developed using SimCYP® simulator, version 20 (Certara, Princeton, NJ, USA). Compound libraries were incorporated into an in vitro dataset, including the microsomal clearance of tegoprazan and M1. Observed PK parameters were obtained from the aforementioned clinical studies (Table 1 and Table 2).
The absorption of tegoprazan was applied to the advanced dissolution, absorption, and metabolism (ADAM) model, and the diffusion layer model (DLM) built into SimCYP® was applied to the considered formulation and pH-dependent solubility of tegoprazan. The permeability of tegoprazan was determined by a Caco-2 permeability assay and optimized by parameter estimation. Caco-2 permeability was optimized such that the predicted concentration–time profiles were fitted to clinical study data. The metabolite was generated by the metabolism of the parent drug; therefore, absorption was not considered.
The tissue distribution in the PBPK model was predicted by the distribution model (e.g., Rodger and Rowland method, Poulin and Theil method) and the tissue:plasma partition coefficient (Kp) scalar for specific organ or global values. Predicted systemic distribution was expressed as the volume of distribution in a steady state (Vss). […]

The target of the next series is T1, recombinant CYP2C8 (Homo sapiens, UniProt P10632).
T1 construct: purchased Corning Life Sciences (Woburn, MA, USA)
T1 sequence (P10632 1-490): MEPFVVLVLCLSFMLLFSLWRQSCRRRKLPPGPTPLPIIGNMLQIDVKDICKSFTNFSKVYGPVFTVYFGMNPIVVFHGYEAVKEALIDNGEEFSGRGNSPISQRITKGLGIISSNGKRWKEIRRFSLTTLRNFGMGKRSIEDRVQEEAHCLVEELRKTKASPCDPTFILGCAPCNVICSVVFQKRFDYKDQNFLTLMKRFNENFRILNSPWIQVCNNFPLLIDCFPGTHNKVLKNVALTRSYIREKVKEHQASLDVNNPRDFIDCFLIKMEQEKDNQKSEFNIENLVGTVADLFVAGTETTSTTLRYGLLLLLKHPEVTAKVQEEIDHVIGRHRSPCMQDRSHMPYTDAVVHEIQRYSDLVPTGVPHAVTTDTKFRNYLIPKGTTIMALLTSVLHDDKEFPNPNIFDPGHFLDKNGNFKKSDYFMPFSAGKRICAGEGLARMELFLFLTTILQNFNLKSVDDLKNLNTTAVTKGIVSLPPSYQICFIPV
Description: Intrinsic clearance using recombinant CYPs: CYP2C8. The series is classed as in vitro ADME. The following applies: 1 μM. The method, then:
The elimination profiles of tegoprazan and M1 were assessed using rCYPs. All the assay procedures were performed according to the manufacturer’s instructions. Master mix (1.399 mL), containing the NADPH-generating system, 3.3 mM of glucose 6-phosphate, PBS buffer, deionized water, and each rCYP (25 pmol/μL of CYP2C8, 2C19, and 2E1 and 50 pmol/μL of CYP3A4, 2C9, and 2D6), was added to a microtube and pre-incubated at 37 °C for 5 min. Next, 1 μM tegoprazan and M1 were added and incubated at 37 °C for 0, 5, 10, 20, 30, 45, and 60 min. A total of 100 μL of the sample, incubated for predefined duration, was transferred to a fresh e-tube. Next, 200 μL of acetonitrile containing tegoprazan-d6 (0.5 μM) was added, vortexed for 5 min, and centrifuged at 16,200× g and 4 °C for 10 min. The concentrations of the remaining tegoprazan and M1 were determined by LC–MS/MS. All experiments were performed in duplicate. CLint,rCYP levels were assessed using the results of the disappearance test. The terminal slope of the linear regression was used to determine the CLint for tegoprazan. The CLint resulting from rCYPs was calculated using Equation (3):(3) CLint,rCYP(μL/min/pmol CYP)=0.693/t1/2×1400/concentration of CYP […]

Take `Cc1nc2cc(C(=O)N(C)C)cc(O[C@H]3CCOc4cc(F)cc(F)c43)c2[nH]1` [tegoprazan]: in series [1], the “AUC0–24 h” value is reported as 5611 (3783–7489) ng × h/mL, the CL is reported as 17.8 (13.1–24.4) L/h and the Cmax is recorded as 1425 (908–2184) ng/mL. Moreover, the pKa in series [2] is 5.1. Further, the Vd in series [3] is 1.55 L/kg. Besides, at recombinant CYP2C8 (experimental data), the “CLint, CYP2C8” value is 0.06 µL/min/pmol and 0.060 µL/min/pmol. Moreover, the “Slope (disappearance)” value at recombinant CYP2C8 (rCYP2C8) is listed as 0.002.
